Among the test systems are SF-268 CNS; KM12 colon; SNB-19 CNS; OVCAR-3 ovarian; A549 NSCLC; ACHN renal; CAKI-1 renal; MDA-MB-231 breast; PC-3 prostate.
Experiment in all cases: NCI-60 cell line screen, 48 h

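Tested at 5 concentrations; 48 h exposure; 96-well plates; endpoints linearly interpolated, else capped at highest concentration. GI50 is the concentration that inhibits growth by half. TGI: total growth inhibition.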 Where a SMILES comes first, the peptide text is derived from it. The star is where a group is joined. Palmitoyl = CCCCCCCCCCCCCCCC(=O)*

`Cn1ncc2c(NCc3ccccc3)ncnc21`: the TGI with SF-268 CNS, with KM12 colon, in the assay on SNB-19 CNS, in the assay with OVCAR-3 ovarian, in the assay with A549 NSCLC and in the assay with ACHN renal was more than 100 µM each time. The TGI in the assay on CAKI-1 renal and with MDA-MB-231 breast was more than 100 µM throughout.

Consider `COc1ccc(N2C(=O)C3c4[nH]c5cc(C)ccc5c4C4CCC(C(C)(C)C)CC4C3C2=O)cc1` (centres undefined), for which the TGI in the assay with PC-3 prostate, in the assay on SF-268 CNS, in the assay on KM12 colon, with SNB-19 CNS, in the assay on OVCAR-3 ovarian and with A549 NSCLC was more than 10 µM in each case. Also, the TGI in the assay on ACHN renal, with CAKI-1 renal and in the assay with MDA-MB-231 breast was more than 10 µM each time.

For `OC(C#CCN1CCCC1)(c1ccccc1)c1ccccc1Cl` (centres undefined), the TGI in the assay with PC-3 prostate was 80.2 µM; with SF-268 CNS, more than 100 µM; in the assay with KM12 colon it was more than 100 µM; in the assay with OVCAR-3 ovarian, more than 100 µM; with A549 NSCLC, more than 100 µM; in the assay with ACHN renal, 71.3 µM. The results for the TGI with CAKI-1 renal and in the assay on MDA-MB-231 breast were 93.6 µM and more than 100 µM, respectively.

Consider `Cc1ccnc(NC(=S)Nc2ccc([N+](=O)[O-])cc2)c1`, for which the TGI in the assay with PC-3 prostate, in the assay with SF-268 CNS, in the assay with KM12 colon, in the assay on SNB-19 CNS and in the assay on ACHN renal was more than 100 µM in each case.

With `CNc1[nH]c(=S)nc2sc3c(c12)CCCC3`, the TGI in the assay on PC-3 prostate, in the assay with SF-268 CNS, with KM12 colon, in the assay with SNB-19 CNS, in the assay with OVCAR-3 ovarian and with ACHN renal was more than 75 µM in each case. Moreover, the TGI in the assay on CAKI-1 renal and in the assay with MDA-MB-231 breast was more than 75 µM throughout.

As for `CCCCCCCCCCCCCCCC(=O)N1CCCC1C(=O)NCC(=O)NC(Cc1ccccc1)C(=O)N1CCCC1C(=O)NC(CO)C(=O)NC(Cc1ccc(O)cc1)C(=O)NC(CCCCN)C(=O)NC(CC(C)C)C(=O)NC(CCCN=C(N)N)C(=O)N1CCCC1C(=O)NCC(N)=O` (centres undefined) (Palmitoyl-PGFPSYKLRPG-NH2; configuration not given here), the GI50 was 12.4 µM in the assay on SF-268 CNS; 2.28 µM in the assay with KM12 colon; 25.7 µM with SNB-19 CNS; 33.3 µM with OVCAR-3 ovarian; 17.5 µM in the assay on A549 NSCLC; 20.9 µM in the assay on CAKI-1 renal. The GI50 in the assay on MDA-MB-231 breast is 17.5 µM. Further, the TGI in the assay on SF-268 CNS is 30.6 µM; with KM12 colon it was 12.7 µM; in the assay with SNB-19 CNS, 55.5 µM; in the assay with OVCAR-3 ovarian, more than 100 µM; in the assay with A549 NSCLC it was 35.4 µM; in the assay with CAKI-1 renal it was 50.6 µM. In the assay with MDA-MB-231 breast, the TGI is 32.8 µM.

Consider `Cc1cc(OP2(=O)NCc3ncccc3O2)ccc1Cl` (centres undefined), for which the TGI in the assay on PC-3 prostate, with KM12 colon, in the assay on SNB-19 CNS, with OVCAR-3 ovarian, in the assay on A549 NSCLC and in the assay on ACHN renal was more than 100 µM each time. Moreover, the TGI in the assay on CAKI-1 renal and in the assay with MDA-MB-231 breast was more than 100 µM in each case.

Regarding `CN1CCN(Cc2cc3c(nn2)-c2ccccc2C3=O)CC1`, the TGI in the assay on PC-3 prostate was more than 100 µM; with SF-268 CNS, more than 100 µM; in the assay with KM12 colon it was more than 100 µM; with SNB-19 CNS, more than 100 µM; with A549 NSCLC, more than 100 µM; in the assay on ACHN renal, 62.4 µM. In the assay on CAKI-1 renal, this compound displayed a TGI of more than 100 µM.

Regarding `CC(C)C1=CC23CCC4C(C)(C(=O)O)CCCC4(C)C2CC1C1C(=O)N(CCCCCCN2C(=O)C4C5CC6C7(C)CCCC(C)(C(=O)O)C7CCC6(C=C5C(C)C)C4C2=O)C(=O)C13` (centres undefined), the TGI with PC-3 prostate was 19 µM; in the assay on SF-268 CNS it was 26.8 µM; in the assay on KM12 colon, 23.9 µM; with SNB-19 CNS, 34.8 µM; in the assay with OVCAR-3 ovarian it was 26.8 µM; in the assay on A549 NSCLC it was 45.3 µM. In addition, the TGI in the assay on ACHN renal worked out at 22.8 µM; with MDA-MB-231 breast it was 36.8 µM.

In the case of `O=C(CNc1ccc(Cl)cc1Cl)Nn1c(-c2ccccc2)nc2ccccc2c1=O`, the TGI is 29.9 µM with PC-3 prostate; 21.6 µM in the assay with SF-268 CNS; 33.9 µM with SNB-19 CNS; 31.3 µM in the assay with OVCAR-3 ovarian; more than 100 µM in the assay on A549 NSCLC; 37.3 µM in the assay on ACHN renal. The compound further returned a TGI in the assay with MDA-MB-231 breast of 36.7 µM.

Turning to `CCOC(=O)CC/C(=N/Nc1ccc(Cl)cc1[N+](=O)[O-])C(=O)OCC`, the TGI with PC-3 prostate, with SF-268 CNS, in the assay on KM12 colon, in the assay with SNB-19 CNS, in the assay with OVCAR-3 ovarian and in the assay with A549 NSCLC was more than 100 µM each time. The TGI in the assay with ACHN renal and with MDA-MB-231 breast was more than 100 µM each time.

Take `O=C1CSC2(CC(/C=C/c3cccs3)=NN2c2cccc(S(=O)(=O)O)c2)N1c1nc2ccccc2s1` (centres undefined): the TGI in the assay on PC-3 prostate, in the assay on SF-268 CNS, in the assay with KM12 colon, in the assay with SNB-19 CNS, in the assay with A549 NSCLC and in the assay with ACHN renal was more than 100 µM each time. Moreover, the TGI in the assay on CAKI-1 renal and in the assay with MDA-MB-231 breast was more than 100 µM each time.

Turning to `Cc1cc(C)nc(NC(=S)Nc2ccc([N+](=O)[O-])cc2)c1`, the TGI in the assay with PC-3 prostate, in the assay on SF-268 CNS, in the assay on KM12 colon, in the assay with SNB-19 CNS, with ACHN renal and with CAKI-1 renal was more than 100 µM in each case. The compound also gave a TGI with MDA-MB-231 breast of more than 100 µM.

On to `C=C1C(=O)[C@@]23CC[C@@H]4[C@@]5(C)CCC[C@@]4(OC5=O)[C@@]2(C)CC[C@@H]1C3`, for which the TGI in the assay with PC-3 prostate is 5.31 µM; in the assay with SF-268 CNS, 6.12 µM; in the assay on KM12 colon it was 10.2 µM; with SNB-19 CNS it was 9.08 µM; in the assay with OVCAR-3 ovarian, 3.95 µM; in the assay with A549 NSCLC, 36.3 µM. Besides, the TGI in the assay on ACHN renal came to 2.64 µM; in the assay on CAKI-1 renal, 2.32 µM.

Turning to `CC(C)Oc1cccc(N2C(=NCc3c[nH]c4ccccc34)Nc3ccncc3S2(=O)=O)c1`, the TGI in the assay with PC-3 prostate is 83.4 µM; with SF-268 CNS it was more than 100 µM; with KM12 colon it was more than 100 µM; with SNB-19 CNS, more than 100 µM; in the assay on OVCAR-3 ovarian, 56.1 µM; with A549 NSCLC, more than 100 µM. The TGI in the assay with ACHN renal and with CAKI-1 renal was more than 100 µM throughout.

On to `C=C(C)[C@H]1C2=CC(C(=O)OC)=C(C[C@H](C(=C)C)[C@@H](O)[C@@H](O)C3=C[C@H]1OC3=O)O2`, for which the TGI in the assay with SF-268 CNS, in the assay on KM12 colon, in the assay on SNB-19 CNS, with OVCAR-3 ovarian, in the assay on A549 NSCLC and with ACHN renal was more than 100 µM each time. For the same compound, the TGI in the assay with CAKI-1 renal and with MDA-MB-231 breast was more than 100 µM in each case.

As to `OCCCc1ccc2c(c1)[C@H](CO)[C@@H](c1ccc(O)cc1)O2`, the TGI in the assay on PC-3 prostate, in the assay with SF-268 CNS, with KM12 colon, in the assay with SNB-19 CNS, in the assay on OVCAR-3 ovarian and in the assay on A549 NSCLC was more than 100 µM throughout. Besides, the TGI with ACHN renal and with MDA-MB-231 breast was more than 100 µM in each case.

Take `CSc1csc(-c2ccc(-c3ccc(-c4cc(SC)cs4)s3)s2)c1`: the TGI in the assay with PC-3 prostate, with SF-268 CNS, in the assay with KM12 colon, with SNB-19 CNS, in the assay on OVCAR-3 ovarian and with A549 NSCLC was more than 100 µM each time. The TGI with ACHN renal and with MDA-MB-231 breast was more than 100 µM throughout.

As for `[N-]=[N+]=CC(=O)OC(CCl)CCl`, the TGI in the assay with PC-3 prostate, in the assay on SF-268 CNS, in the assay on KM12 colon, in the assay on SNB-19 CNS, in the assay on OVCAR-3 ovarian and in the assay on ACHN renal was more than 100 µM throughout. The TGI with MDA-MB-231 breast was more than 100 µM.

As to `Clc1sc(Cl)c2c1[C@@H](Cl)C[C@@H]2Br`, the TGI with PC-3 prostate, with SF-268 CNS, in the assay on KM12 colon, in the assay with SNB-19 CNS, in the assay on A549 NSCLC and with ACHN renal was more than 100 µM throughout. The TGI in the assay with CAKI-1 renal and in the assay with MDA-MB-231 breast was more than 100 µM in each case.

`CC1=C(C#N)c2nc3ccccc3n2C(=O)C1(C)CCO` (centres undefined): the TGI in the assay on PC-3 prostate, in the assay with SF-268 CNS, with SNB-19 CNS, in the assay with OVCAR-3 ovarian, in the assay with A549 NSCLC and in the assay with ACHN renal was more than 100 µM throughout. The TGI in the assay with CAKI-1 renal and with MDA-MB-231 breast was more than 100 µM throughout.

For `CCc1n[nH]c(=O)n1-c1ccc2ccccc2c1`, the TGI with SF-268 CNS, in the assay with KM12 colon, with SNB-19 CNS, in the assay on OVCAR-3 ovarian, in the assay on A549 NSCLC and with ACHN renal was more than 100 µM throughout. The TGI in the assay on CAKI-1 renal and in the assay with MDA-MB-231 breast was more than 100 µM in each case.

As for `CC1(C)CCc2c(ccc(C(=O)/C=C/c3ccc(O)cc3)c2O)O1`, the TGI with PC-3 prostate came to 17.8 µM; in the assay with SF-268 CNS, 23.2 µM; in the assay with SNB-19 CNS, 25.8 µM; in the assay on OVCAR-3 ovarian, 18.3 µM; with A549 NSCLC it was 25.8 µM; in the assay with ACHN renal, 20.5 µM. The TGI was 15.8 µM in the assay on CAKI-1 renal and 18.9 µM with MDA-MB-231 breast.

(Values after PubChem BioAssay (NCI).)
